# From US7491703B2, “Tetrapeptide regulating blood glucose level in diabetes mellitus” (“Access Bioscience” CJSC, priority 2003, dated 2009)
# Residues, ends and D or L forms follow the SMILES beside them.
# How the values were obtained:
# [1] = tested on: rats with alloxan diabetes; assay: Insulin effect on blood glucose level in alloxan diabetes rats after tetrapeptide course (Example 7); type: in vivo, rat
# Method: The study was conducted on 13 male rats, enrolled in the previous trial (treatment variant—28 days after completion of Lys-Glu-Asp-Trp-NH2 [SEQ ID NO:1] tetrapeptide administration). 8 healthy rats of the similar body weight constituted a separate group. All the animals were administered intravenously with insulin (0.3 units) and glucose concentration in their blood was estimated hereafter.
# [2] = Toxicity (experimentally proved)
# [3] = tested on: rats with alloxan diabetes; assay: Course of alloxan diabetes in rats, prophylaxis and treatment variant (Example 3); type: in vivo, rat
# Method: The experiment was carried out on 15 white mongrel male rats with the average body weight 375±35 g. The animals were divided randomly into 2 groups. Control animals were administered once a day intravenously with 0.3 ml of 0.9% NaCl solution, while the main group animals were administered with Lys-Glu-Asp-Trp-NH2 [SEQ ID NO:1] tetrapeptide in dose of 3 μg (in 0.3 ml of 0.9% NaCl solution) per rat during 7 days. After that all the animals were subject to single intravenous administration of 1 ml of alloxan solution (“Spofa”) in dose 35 mg/kg. Lys-Glu-Asp-Trp-NH2 [SEQ ID NO:1] tetrapeptide had been administered during 3 days following alloxan administration. After that […] were subject to the second Lys-Glu-Asp-Trp-NH2 [SEQ ID NO:1] tetrapeptide course from 18 day till day 28 (total 11 days) in the same dose.
# [4] = tested on: patients with diabetes mellitus; assay: Clinical application in patients with diabetes mellitus (Example 8); type: in vivo, human; settings: for blood glucose level on an empty stomach: 10 μg i.m. 10 days
# Method: The investigation was carried out in 36 patients aged from 16 to 83 years (7 men, 29 women). In 23 patients there was diagnosed type 1 diabetes, in 13 patients—type 2 diabetes. The disease duration varied from 1 year to 30 years. 32 patients received insulin. The majority of the patients suffering diabetes mellitus entered the hospital decompensated. Blood glucose level in these patients on an empty stomach oscillated from […]; the glycosylated haemoglobin—from 7.8 to 12.7%. All the patients were prescribed a rigid diet. All the patients were stratified randomly into 2 groups, with respect to age, sex, duration and stage of the disease (Table 7). Alongside with standard method of treatment 16 patients were prescribed Lys-Glu-Asp-Trp-NH2 [SEQ ID NO:1] tetrapeptide in dose of 10 μg (in 1 ml of 0.9% NaCl solution) intramuscularly once a day for 10 days. 4 patients suffering type 2 diabetes mellitus were prescribed together with standard treatment course Lys-Glu-Asp-Trp-NH2 [SEQ ID NO:1] tetrapeptide in dose of 100 μg (1 tablet) twice a day before meals during 10 days. Patients of the control group were administered with 1 ml of 0.9% of NaCl solution as a placebo following the same scheme.
# [5] = tested on: rats with alloxan diabetes; assay: Glucose tolerance test (sugar curve) in alloxan diabetes rats (Example 6); type: in vivo, rat; settings: for glucose concentration in blood, glucose tolerance test: in mg/dL
# Method: The study was conducted on 13 male rats, enrolled in the previous tests (treatment variants—44 days after completion of tetrapeptide Lys-Glu-Asp-Trp-NH2 [SEQ ID NO:1] administration). 7 healthy rats with the same body weight constituted a separate group. All the animals were administered intravenously with 1 ml of 2% glucose solution, after that glucose concentration in their blood was estimated.
# [6] = tested on: rats with alloxan diabetes; assay: Tetrapeptide in different doses on the course of alloxan diabetes in rats (Example 4); type: in vivo, rat; settings: for increase in the blood glucose level as compared to the controls: dose of 1 μg; for decrease of glucose level: dose of 10 μg
# Method: The study was performed on 23 white mongrel male rats weighing on average […]. All the animals were subject to single intravenous administration of 1 ml of alloxan (“Spofa”) solution in dose of […].
# Then the animals were divided at random into 3 groups. Control animals were intraperitoneally administered with 0.3 ml of 0.9% NaCl solution once a day. Rats of the second and third group were administered with tetrapeptide Lys-Glu-Asp-Trp-NH2 [SEQ ID NO:1] in dose of 1 μg (in 0.1 ml of 0.9% NaCl solution) and 10 μg (in 1.0 ml of 0.9% NaCl solution) per rat during 7 days.
# [7] = of 16 insulin-treated patients, 10 μg i.m. once a day for 10 days
# [8] = tablets, patients treated with oral anti-diabetic medicine
# [9] = 30 min after glucose administration
# [10] = 60 min after glucose administration
# [11] = 120 min after glucose administration
smiles,measurement,setting,value
"NCCCC[C@H](N)C(=O)N[C@@H](CCC(=O)O)C(=O)N[C@@H](CC(=O)O)C(=O)N[C@@H](Cc1c[nH]c2ccccc12)C(N)=O [Lys-Glu-Asp-Trp-NH2, lysyl-glutamyl-aspartyl-tryptophane amid] (H-KEDW-NH2)",Decrease in glucose content with respect to initial level,[1]; 30 minutes after insulin administration,44.2%
same,Glucose Concentration in blood,[1]; 30 minutes after insulin administration (0.3 units i.v.),123.6 ± 8.3 mg %
same,Glucose Concentration in blood,"[1]; initial level, 28 days after course completion",221.5 ± 11.2 mg %
same,decrease of the glucose level after insulin administration as compared to the control group,"[1]; rat, in vivo",two-fold
same,toxicity,[2],non-toxic
same,survived animals,[3]; 40th day after alloxan administration (control 57.1%),75%
same,Glucose Concentration in blood,[3]; 5 days after alloxan administration,247.3 ± 17.2 mg %
same,Glucose Concentration in blood,"[3]; 7 days from the onset of tetrapeptide administration (1 course, 3 μg per rat), healthy rats before alloxan",94.0 ± 0.8 mg %
same,Glucose Concentration in blood,[3]; 14 days after alloxan administration,261.5 ± 39.5 mg %
same,Glucose Concentration in blood,[3]; 18 days after alloxan administration (start of 2nd course),159.0 ± 32.6 mg %
same,Glucose Concentration in blood,[3]; 28 days after alloxan administration (end of 2nd course),77.3 ± 1.3 mg %
same,Glucose Concentration in blood,[3]; 33 days after alloxan administration,90.7 ± 5.2 mg %
same,Glucose Concentration in blood,[3]; 40 days after alloxan administration,107.7 ± 6.4 mg %
same,effect on blood glucose level,[3]; administration to healthy animals,did not lead to the decrease of blood glucose level
same,decrease of blood glucose level as compared to the controls,[3]; after one course,22-30%
same,blood glucose level,"[3]; after the second course, 28th, 33rd, 40th day",complete normalisation of the blood glucose level
same,rats with severe form of diabetes mellitus,[3]; control: 5 rats out of 7,2 rats out of 8
same,Glucose Concentration in blood,"[3]; initial level, before peptide",76.8 ± 1.1 mg %
same,decrease of daily insulin dose as compared to the initial level,[4]; Case No. 1,26 units
same,coagulogram indices,"[4]; Case No. 1, at discharge",pronounced improvement
same,Daily dose of insulin,"[4]; Case No. 1, at discharge, on admission 82 units",56 units
same,blood glucose level on an empty stomach,"[4]; Case No. 1, type 2 diabetes, discharge on the 18th day, on admission 10 μmol/l",5.9 mM
same,decrease of daily insulin dose as compared to the initial level,[4]; Case No. 2,8 units
same,Daily norm of insulin,"[4]; Case No. 2, at discharge, on admission 40 units",32 units
same,blood glucose level on an empty stomach,"[4]; Case No. 2, type 1 diabetes, discharge on the 15th day, on admission 17.8 μmol/l",3.4 mM
same,reduction of the dose of diabeton,[4]; Case No. 3,two-fold
same,blood glucose level,"[4]; Case No. 3, after the completion of the treatment course",remained within the norm
same,glucose level on an empty stomach,"[4]; Case No. 3, type 2 diabetes, second day, 100 μg tablet twice a day with 2 diabeton tablets, on admission 11 μmol/l",6 mM
same,patients of the main group with decrease of insulin dose,[4]; none in control group,50%
same,"Decreased insulin dose necessary to achieve compensation, number of patients",[4]; [7],8
same,"Increased insulin dose necessary to achieve compensation, number of patients",[4]; [7],2
same,"The same insulin dose necessary to achieve compensation, number of patients",[4]; [7],6
same,reduction of the insulin daily dose,"[4]; on average, in 8 patients out of 16",8 units
same,reduction of the dose of insulin,[4]; patients who received tetrapeptide in tablets daily,25 units
same,compensation,[4]; [8],full compensation
same,reduction of the dose of oral anti-diabetic preparations,[4]; [8],two-fold
same,insulin dose increase to achieve compensation,[4]; the 1st patient,4 units
same,insulin dose increase to achieve compensation,[4]; the 2nd patient,14 units
same,glucose concentration compared to the initial level (100%),[5]; 5 min after glucose administration,142.9%
same,"glucose concentration in blood, glucose tolerance test",[5]; 5 min after glucose administration (1 ml of 2% i.v.),301.2 ± 10.5
same,glucose concentration compared to the initial level (100%),[5]; [9],97.3%
same,"glucose concentration in blood, glucose tolerance test",[5]; [9],205.1 ± 11.8
same,glucose concentration compared to the initial level (100%),[5]; [10],95.6%
same,"glucose concentration in blood, glucose tolerance test",[5]; [10],201.5 ± 13.2
same,glucose concentration compared to the initial level (100%),[5]; [11],77.9%
same,"glucose concentration in blood, glucose tolerance test",[5]; [11],164.2 ± 12.8
same,"glucose concentration in blood, glucose tolerance test","[5]; initial level, 44 days after course completion",210.8 ± 9.3
same,Glucose Concentration in blood,"[6]; 1 mkg group, 7 days after alloxan administration",245.6 ± 12.3 mg %
same,Glucose Concentration in blood,"[6]; 1 mkg group, 14 days after alloxan administration",261.7 ± 12.3 mg %
same,Glucose Concentration in blood,"[6]; 1 mkg group, initial level",80.6 ± 2.8 mg %
same,Glucose Concentration in blood,"[6]; 1 mkg per rat, 7 days, 1 day after tetrapeptide administration",228.3 ± 10.7 mg %
same,Glucose Concentration in blood,"[6]; 1 mkg per rat, 4 days after tetrapeptide administration",244.4 ± 12.2 mg %
same,Glucose Concentration in blood,"[6]; 1 mkg per rat, 7 days after tetrapeptide administration",269.4 ± 8.6 mg %
same,Glucose Concentration in blood,"[6]; 1 mkg per rat, 14 days after tetrapeptide administration",268.8 ± 12.4 mg %
same,Glucose Concentration in blood,"[6]; 1 mkg per rat, 21 days after tetrapeptide administration",272.5 ± 9.9 mg %
same,Glucose Concentration in blood,"[6]; 10 mkg group, 7 days after alloxan administration",247.2 ± 14.0 mg %
same,Glucose Concentration in blood,"[6]; 10 mkg group, 14 days after alloxan administration",252.2 ± 7.9 mg %
same,Glucose Concentration in blood,"[6]; 10 mkg group, initial level",83.9 ± 3.4 mg %
same,Glucose Concentration in blood,"[6]; 10 mkg per rat, 7 days, 1 day after tetrapeptide administration",193.3 ± 6.7 mg %
same,Glucose Concentration in blood,"[6]; 10 mkg per rat, 4 days after tetrapeptide administration",212.2 ± 7.3 mg %
same,Glucose Concentration in blood,"[6]; 10 mkg per rat, 7 days after tetrapeptide administration",205.6 ± 8.4 mg %
same,Glucose Concentration in blood,"[6]; 10 mkg per rat, 14 days after tetrapeptide administration",240.0 ± 7.9 mg %
same,Glucose Concentration in blood,"[6]; 10 mkg per rat, 21 days after tetrapeptide administration",248.3 ± 13.5 mg %
same,increase in the blood glucose level as compared to the controls,[6]; 1st day after completion of the course,17.3%
same,increase in the blood glucose level as compared to the controls,[6]; 4th day after completion of the course,12.3%
same,decrease of glucose level,[6]; day 1,30%
same,decrease of glucose level,[6]; day 4,23.8%
same,decrease of glucose level,[6]; day 7,26%
same,decrease of glucose level,[6]; day 17,12.7%
